Measurements from ChEMBL document CHEMBL1143866, “Syntheses of N3-substituted thymine acyclic nucleoside phosphonates and a comparison of their inhibitory effect towards thymidine phosphorylase” (Bioorg Med Chem Lett, 2008).

Key:
[1] = target: Thymidine phosphorylase (Escherichia coli K-12) (UniProt P07650); experiment: Inhibition of Escherichia coli thymidine phosphorylase assessed as ratio of phosphorolysis in presence of drug to control at 10 umol/l
[2] = target: T1, Thymidine phosphorylase (Rattus norvegicus) (UniProt Q5FVR2); experiment: Inhibition of Sprague-Dawley rat lymphoma thymidine phosphorylase assessed as ratio of phosphorolysis in presence of drug to control at 10 umol/l
T1 sequence (whole entry): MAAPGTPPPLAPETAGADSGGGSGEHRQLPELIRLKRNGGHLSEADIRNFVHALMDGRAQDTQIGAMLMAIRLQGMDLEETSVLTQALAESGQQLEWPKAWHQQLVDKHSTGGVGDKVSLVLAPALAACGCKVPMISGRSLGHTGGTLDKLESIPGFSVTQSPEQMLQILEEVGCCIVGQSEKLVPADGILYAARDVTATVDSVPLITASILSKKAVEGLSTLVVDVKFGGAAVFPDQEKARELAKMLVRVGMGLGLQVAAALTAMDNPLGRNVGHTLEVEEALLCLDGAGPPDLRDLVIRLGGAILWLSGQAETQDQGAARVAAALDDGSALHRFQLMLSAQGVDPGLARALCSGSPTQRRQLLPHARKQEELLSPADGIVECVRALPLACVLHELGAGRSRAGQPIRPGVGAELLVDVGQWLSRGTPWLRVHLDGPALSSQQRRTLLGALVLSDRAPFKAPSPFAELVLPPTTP

Sequence of Thymidine phosphorylase (Escherichia coli K-12) (P07650 whole entry, looked up): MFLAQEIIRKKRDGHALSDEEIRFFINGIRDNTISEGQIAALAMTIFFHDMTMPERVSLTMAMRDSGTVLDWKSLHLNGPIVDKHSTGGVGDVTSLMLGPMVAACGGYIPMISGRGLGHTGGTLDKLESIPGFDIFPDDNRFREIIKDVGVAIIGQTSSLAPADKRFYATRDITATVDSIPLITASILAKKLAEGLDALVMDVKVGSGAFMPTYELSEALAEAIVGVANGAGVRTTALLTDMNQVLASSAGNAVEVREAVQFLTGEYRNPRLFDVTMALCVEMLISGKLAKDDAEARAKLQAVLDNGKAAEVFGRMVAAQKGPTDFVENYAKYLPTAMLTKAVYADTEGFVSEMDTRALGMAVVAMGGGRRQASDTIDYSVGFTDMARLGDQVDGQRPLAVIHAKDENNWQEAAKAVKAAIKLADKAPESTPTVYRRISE

SMILES | Ratio [1] | Ratio [2]
Cc1c[nH]c(=O)n(C[C@H](CF)OCP(=O)(O)O)c1=O | 0.98 | 0.75
Cc1c[nH]c(=O)n(CCOCP(=O)(O)O)c1=O | 1.07 | 1.44
Cc1c[nH]c(=O)n(C[C@H](CO)OCP(=O)(O)O)c1=O | 1.01 | 0.78
Cc1c[nH]c(=O)n(C[C@@H](CO)OCP(=O)(O)O)c1=O | 0.94 | –
Cc1c[nH]c(=O)n(C[C@@H](CF)OCP(=O)(O)O)c1=O | 0.93 | –
